Key:
[1] = target: T1, full-length LRRK2 G2019S (Homo sapiens, UniProt Q5S007, G2019S); test: LRRK2-G2019S kinase activity assay (Lanthascreen TR-FRET); type: biochemical; settings: 1.1 mM ATP
T1 construct: DYKDDDDK (FLAG)
Method: (§1) The potency of compounds was evaluated in vitro using the Lanthascreen® technology (ThermoFisher Scientific).
(§2) In a typical experiment, the reaction assay buffer contains 50 mM Tris pH8.2, 1 mM EGTA, 2.5 mM MgCl2, 0.05% Triton X100, 0.15% BSA and 1 mM DTT. The detection of the assay is performed using 1 nM Terbium labeled anti-phospho-LRRKtide (ThermoFisher Scientific) diluted in a TR-FRET buffer (ThermoFisher Scientific).
(§3) The experimental procedure was performed with Greiner small volume® 384-well. […] The working solution of compounds was prepared in a separate Greiner microplate.
(§4) The kinase reaction was initiated by addition of the ATP/LRRKtide substrate mix diluted in the reaction assay buffer. The reaction mix was incubated for at least 10 minutes at room temperature (initial velocity conditions). Reaction was stopped by addition of Terbium labeled anti-phospho-LRRKtide diluted into the detection buffer supplemented with EDTA (ThermoFisher Scientific). Plates are incubated for at least 30 minutes at room temperature and read on an Envision™ multimode plate reader (PerkinElmer) with LanthaScreen™. The TR-FRET 520:495 nm emission ratio was calculated and used to determine the IC50 value from a dose response curve fit to the 4-parameter logistic equation. The activity with respect to LRRK2 kinase in this test is given by the concentration which inhibits 50% of the LRRK2 activity (or IC50) in nM.

[2] = target: T2, full-length LRRK2 wild type (Homo sapiens, UniProt Q5S007); test: LRRK2 WT assay (Assay A, Lanthascreen TR-FRET, 500 uM ATP); type: biochemical; settings: Assay A (values without *)
T2 construct: DYDDDDK tagged full-length LRRK2 wild type is used
T2 sequence (Q5S007 whole entry): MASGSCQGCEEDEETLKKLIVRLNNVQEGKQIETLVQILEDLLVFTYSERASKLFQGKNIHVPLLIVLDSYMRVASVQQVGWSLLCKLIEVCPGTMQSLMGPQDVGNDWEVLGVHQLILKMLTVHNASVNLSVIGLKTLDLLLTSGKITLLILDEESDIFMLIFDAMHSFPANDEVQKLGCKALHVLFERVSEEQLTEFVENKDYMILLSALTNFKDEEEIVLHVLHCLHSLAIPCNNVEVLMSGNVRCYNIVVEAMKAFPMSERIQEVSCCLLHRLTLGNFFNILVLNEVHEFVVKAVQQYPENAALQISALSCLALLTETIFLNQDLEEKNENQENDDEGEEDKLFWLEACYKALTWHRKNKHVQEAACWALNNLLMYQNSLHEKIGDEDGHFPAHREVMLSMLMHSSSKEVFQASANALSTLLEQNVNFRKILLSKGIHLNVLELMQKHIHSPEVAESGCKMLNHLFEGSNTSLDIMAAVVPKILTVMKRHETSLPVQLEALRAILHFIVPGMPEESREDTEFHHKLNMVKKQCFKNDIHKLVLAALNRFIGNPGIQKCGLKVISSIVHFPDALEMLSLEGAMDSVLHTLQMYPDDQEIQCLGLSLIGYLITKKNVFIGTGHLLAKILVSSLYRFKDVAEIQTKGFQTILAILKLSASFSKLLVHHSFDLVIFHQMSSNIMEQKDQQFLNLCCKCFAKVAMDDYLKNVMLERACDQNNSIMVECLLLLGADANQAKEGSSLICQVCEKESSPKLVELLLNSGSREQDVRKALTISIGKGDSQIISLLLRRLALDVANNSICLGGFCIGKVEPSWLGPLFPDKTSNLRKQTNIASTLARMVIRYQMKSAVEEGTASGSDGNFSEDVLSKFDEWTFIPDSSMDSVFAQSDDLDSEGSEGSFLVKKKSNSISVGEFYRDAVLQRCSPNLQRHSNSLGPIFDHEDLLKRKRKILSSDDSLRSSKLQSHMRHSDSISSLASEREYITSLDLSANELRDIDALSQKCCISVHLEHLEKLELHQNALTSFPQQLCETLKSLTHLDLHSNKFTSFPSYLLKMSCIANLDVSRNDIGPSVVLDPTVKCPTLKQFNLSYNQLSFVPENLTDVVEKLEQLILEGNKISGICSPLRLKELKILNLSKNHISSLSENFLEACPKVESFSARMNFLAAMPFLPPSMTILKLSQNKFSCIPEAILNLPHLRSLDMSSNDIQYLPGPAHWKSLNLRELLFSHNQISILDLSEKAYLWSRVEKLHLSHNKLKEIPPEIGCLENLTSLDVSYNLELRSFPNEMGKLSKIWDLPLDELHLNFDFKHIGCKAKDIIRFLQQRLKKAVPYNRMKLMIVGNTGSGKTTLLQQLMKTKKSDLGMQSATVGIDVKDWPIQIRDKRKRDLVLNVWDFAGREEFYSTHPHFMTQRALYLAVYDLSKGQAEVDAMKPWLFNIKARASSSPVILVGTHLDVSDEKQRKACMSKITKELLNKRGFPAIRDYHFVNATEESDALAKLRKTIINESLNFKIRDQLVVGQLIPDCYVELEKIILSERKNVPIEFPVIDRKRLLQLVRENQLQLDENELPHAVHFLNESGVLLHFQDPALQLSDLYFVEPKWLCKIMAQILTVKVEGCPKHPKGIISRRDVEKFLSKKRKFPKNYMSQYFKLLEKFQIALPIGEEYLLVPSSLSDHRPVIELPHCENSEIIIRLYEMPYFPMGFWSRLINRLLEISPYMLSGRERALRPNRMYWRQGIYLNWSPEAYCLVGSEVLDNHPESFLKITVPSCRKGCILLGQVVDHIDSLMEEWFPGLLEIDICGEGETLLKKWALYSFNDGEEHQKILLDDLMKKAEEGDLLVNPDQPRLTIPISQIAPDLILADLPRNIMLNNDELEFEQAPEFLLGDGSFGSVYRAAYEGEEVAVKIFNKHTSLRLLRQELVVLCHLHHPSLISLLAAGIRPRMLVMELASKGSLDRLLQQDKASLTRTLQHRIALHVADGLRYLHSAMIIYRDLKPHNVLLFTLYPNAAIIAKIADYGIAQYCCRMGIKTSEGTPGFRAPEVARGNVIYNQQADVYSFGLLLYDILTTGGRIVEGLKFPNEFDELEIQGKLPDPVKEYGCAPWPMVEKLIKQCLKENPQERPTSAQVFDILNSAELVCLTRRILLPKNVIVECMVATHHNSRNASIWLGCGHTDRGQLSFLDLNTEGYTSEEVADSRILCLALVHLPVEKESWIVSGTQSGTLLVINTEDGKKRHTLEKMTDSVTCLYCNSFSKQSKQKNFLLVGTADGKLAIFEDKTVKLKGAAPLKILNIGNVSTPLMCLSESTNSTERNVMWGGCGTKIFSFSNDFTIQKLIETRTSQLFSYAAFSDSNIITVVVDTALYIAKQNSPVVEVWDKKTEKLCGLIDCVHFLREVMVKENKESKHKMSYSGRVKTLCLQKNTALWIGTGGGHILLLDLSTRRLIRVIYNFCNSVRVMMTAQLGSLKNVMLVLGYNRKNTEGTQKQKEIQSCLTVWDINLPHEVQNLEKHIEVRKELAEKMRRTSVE
Method: as §1, §2, §3, §4

T1 sequence (Q5S007 whole entry G2019S): as the sequence (Q5S007 whole entry) above, with G2019S counted along it

| Compound | IC50 [1] [nM] | IC50 [2] [nM] |
| --- | --- | --- |
| COC[C@H](C)n1c(C#N)cc2cnc(Nc3cn(COC)nc3OC3CC3)nc21 [Example 92, 2-[[3-(Cyclopropoxy)-1-(methoxymethyl)pyrazol-4-yl]amino]-7-[(1S)-2-methoxy-1-methyl-ethyl]pyrrolo[2,3-d]pyrimidine-6-carbonitrile] | 4 | 6 |
| CC(C)Oc1nn(C(C)(C)C#N)cc1Nc1ncc2cc(C#N)n(C3COC3)c2n1 [Example 74, 2-((1-(2-Cyanopropan-2-yl)-3-isopropoxy-1H-pyrazol-4-yl)amino)-7-(oxetan-3-yl)-7H-pyrrolo[2,3-d]pyrimidine-6-carbonitrile] | 14 | 20 |
| [2H]C([2H])([2H])n1cc(Nc2ncc3cc(C#N)n([C@@H](C)COC)c3n2)c(O[C@@H]2COC[C@@H]2O)n1 (single isomer, unassigned) [Example 136] | 81 | 95 |
| [2H]C([2H])([2H])n1cc(Nc2ncc3cc(C#N)n([C@@H](C)COC)c3n2)c(OC2COC2(C)C)n1 (single isomer, unassigned) [Example 100] | 39 | 40 |
| C[C@H]1COC[C@H]1n1c(C#N)cc2cnc(Nc3cn(C)nc3OC3COC3)nc21 (single isomer, unassigned) [Example 45, 2-((1-methyl-3-(oxetan-3-yloxy)-1 H-pyrazol-4-yl)amino)-7-((cis)-4-methyltetrahydrofuran-3-yl)-7H-pyrrolo[2,3-d]pyrimidine-6-carbonitrile] | 35 | 46 |
| CC(Oc1nn(C2COC2)cc1Nc1ncc2cc(C#N)n([C@H]3COC[C@@H]3C)c2n1)C(F)(F)F (single isomer, unassigned) [Example 11] | 19 | 27 |
| CC(C)Oc1nn(C2COC2)cc1Nc1ncc2cc(C#N)n([C@H]3COC[C@@H]3C)c2n1 [Example 31, 2-((3-Isopropoxy-1-(oxetan-3-yl)-1H-pyrazol-4-yl)amino)-7-((3R,4R)-4-methyltetrahydrofuran-3-yl)-7H-pyrrolo[2,3-d]pyrimidine-6-carbonitrile] | 2 | 2 |
| CO[C@@H]1COC[C@H]1Oc1nn(C)cc1Nc1ncc2cc(C#N)n([C@H]3COC[C@@H]3C)c2n1 (single isomer, unassigned) [Example 13] | 9 | 13 |
| COCn1cc(Nc2ncc3cc(C#N)n([C@H]4COC[C@@H]4C)c3n2)c(O[C@@H]2CO[C@H]2C)n1 (mixture of isomers) [Example 39, 2-[[1-(methoxymethyl)-3-[(trans)-2-methyloxetan-3-yl]oxy-pyrazol-4-yl]amino]-7-[(3R,4R)-4-methyltetrahydrofuran-3-yl]pyrrolo[2,3-d]pyrimidine-6-carbonitrile] | 8 | 10 |
| C[C@H]1COC[C@@H]1n1c(C#N)cc2cnc(Nc3cn(S(C)(=O)=O)nc3OC3COC3)nc21 [Example 34, 2-((1-(Methylsulfonyl)-3-(oxetan-3-yloxy)-1H-pyrazol-4-yl)amino)-7-((3R,4R)-4-methyltetrahydrofuran-3-yl)-7H-pyrrolo[2,3-d]pyrimidine-6-carbonitrile] | 5 | 7 |
| [2H]C([2H])([2H])n1cc(Nc2ncc3cc(C#N)n([C@H]4COC[C@@H]4C)c3n2)c(O[C@H]2CO[C@H]2C)n1 (single isomer, unassigned) [Example 23] | 8 | 10 |
| COCCn1cc(Nc2ncc3cc(C#N)n([C@@H](C)COC)c3n2)c(OC2CC2)n1 [Example 103, (S)-2-((3-cyclopropoxy-1-(2-methoxyethyl)-1H-pyrazol-4-yl)amino)-7-(1-methoxypropan-2-yl)-7H-pyrrolo[2,3-d]pyrimidine-6-carbonitrile] | 31 | 35 |
| [2H]C([2H])([2H])n1cc(Nc2ncc3cc(C#N)n([C@H]4COC[C@@H]4C)c3n2)c(OC2CCOC2)n1 (single isomer, unassigned) [Example 112] | 16 | 13 |
| [2H]C([2H])([2H])n1cc(Nc2ncc3cc(C#N)n([C@@H](C)COC)c3n2)c(OC2C(C)(C)C(O)C2(C)C)n1 (single isomer, unassigned) [Example 132] | 32 | 36 |
| [2H]C([2H])([2H])n1cc(Nc2ncc3cc(C#N)n([C@H]4COC[C@@H]4C)c3n2)c(OC2COC(C)(C)C2)n1 (single isomer, unassigned) [Example 109] | 38 | 26 |
| [2H]C([2H])([2H])n1cc(Nc2ncc3cc(C#N)n(C4COCC4C)c3n2)c(OC2CCC2(C)O)n1 (mixture of isomers) [Example 142, 2-((3-((1S,2S)-2-hydroxy-2-methylcyclobutoxy)-1-(methyl-d3)-1 H-pyrazol-4-yl)amino)-7-((3R,4R)-4-methyltetrahydrofuran-3-yl)-7H-pyrrolo[2,3-d]pyrimidine-6-carbonitrile and 2-((3-((1 R,2R)-2-hydroxy-2-methylcyclobutoxy)-1-(methyl-d3)-1 H-pyrazol-4-yl)amino)-7-((3R,4R)-4-methyltetrahydrofuran-3-yl)-7H-pyrrolo[2,3-d]pyrimidine-6-carbonitrile] | 5 | 3 |
| CC(C(F)F)n1cc(Nc2ncc3cc(C#N)n([C@H]4COC[C@@H]4C)c3n2)c(OC2COC2)n1 (single isomer, unassigned) [Example 4] | 1 | 1 |
| CO[C@@H]1COC[C@H]1Oc1nn(C)cc1Nc1ncc2cc(C#N)n([C@H]3COC[C@@H]3C)c2n1 (single isomer, unassigned) [Example 12] | 6 | 8 |
| CCn1cc(Nc2ncc3cc(C#N)n([C@H]4COC[C@@H]4C)c3n2)c(OC2COC2)n1 [Example 38, 2-((1-Ethyl-3-(oxetan-3-yloxy)-1H-pyrazol-4-yl)amino)-7-((3R,4R)-4-methyltetrahydrofuran-3-yl)-7H-pyrrolo[2,3-d]pyrimidine-6-carbonitrile] | 5 | 6 |
| [2H]C([2H])([2H])n1cc(Nc2ncc3cc(C#N)n([C@@H](C)COC)c3n2)c(OC2COC2)n1 [Example 91, 7-[(2S)-1-Methoxypropan-2-yl]-2-[[3-(oxetan-3-yloxy)-1-(methyl-d3)pyrazol-4-yl]amino]pyrrolo[2,3-d]pyrimidine-6-carbonitrile] | 7 | 13 |
| C[C@H]1COC[C@@H]1n1c(C#N)cc2cnc(Nc3ccc(CN(C)C)cc3OC3CC3)nc21 [Example 41, 2-((2-Cyclopropoxy-4-((dimethylamino)methyl)phenyl)amino)-7-((3R,4R)-4-methyltetrahydrofuran-3-yl)-7H-pyrrolo[2,3-d]pyrimidine-6-carbonitrile] | 3 | 4 |
| [2H]C([2H])([2H])n1cc(Nc2ncc3cc(C#N)n([C@H]4COC[C@@H]4C)c3n2)c(OC2CC2)n1 [Example 28, 2-((3-Cyclopropoxy-1-(methyl-d3)-1H-pyrazol-4-yl)amino)-7-((3R,4R)-4-methyltetrahydrofuran-3-yl)-7H-pyrrolo[2,3-d]pyrimidine-6-carbonitrile] | 3 | 3 |
| [2H]C([2H])([2H])n1cc(Nc2ncc3cc(C#N)n([C@@H](C)COC)c3n2)c(O[C@@H]2COC[C@H]2O)n1 (single isomer, unassigned) [Example 116] | 50 | 43 |
| CC(C)Oc1nn(C)cc1Nc1ncc2cc(C#N)n([C@@H]3CO[C@H]3C)c2n1 (single isomer, unassigned) [Example 78, 7-[(trans)-2-methyloxetan-3-yl]-2-[(1-methyl-3-propan-2-yloxypyrazol-4-yl)amino]pyrrolo[2,3-d]pyrimidine-6-carbonitrile] | 64 | 79 |
| C[C@@H]1OC[C@H]1n1c(C#N)cc2cnc(Nc3cn(C)nc3OC3COC3)nc21 (single isomer, unassigned) [Example 77, 7-[(trans)-2-methyloxetan-3-yl]-2-[[1-methyl-3-(oxetan-3-yloxy)pyrazol-4-yl]amino]pyrrolo[2,3-d]pyrimidine-6-carbonitrile] | 21 | 34 |
| CC(C)Oc1nn(C(C)(C)C#N)cc1Nc1ncc2cc(C#N)n([C@H]3COC[C@@H]3C)c2n1 [Example 29, 2-((1-(2-Cyanopropan-2-yl)-3-isopropoxy-1H-pyrazol-4-yl)amino)-7-((3R,4R)-4-methyltetrahydrofuran-3-yl)-7H-pyrrolo[2,3-d]pyrimidine-6-carbonitrile] | 1 | 1 |
| [2H]C([2H])([2H])n1cc(Nc2ncc3cc(C#N)n([C@H]4COC[C@@H]4C)c3n2)c(O[C@@H]2COC[C@H]2O)n1 (single isomer, unassigned) [Example 115] | 17 | 14 |
| COCn1cc(Nc2ncc3cc(C#N)n([C@H]4COC[C@@H]4C)c3n2)c(OC2COC2)n1 [Example 33, 2-((1-(Methoxymethyl)-3-(oxetan-3-yloxy)-1H-pyrazol-4-yl)amino)-7-((3R,4R)-4-methyltetrahydrofuran-3-yl)-7H-pyrrolo[2,3-d]pyrimidine-6-carbonitrile] | 9 | 14 |
